In patent US20160199434A1, “COMPOSITIONS AND METHODS FOR MODULATING DNA METHYLATION” (OHIO STATE INNOVATION FOUNDATION, priority 2013, published 2016):
Entries after “also recorded” stand apart in the source; their conditions may differ.

Legend:
DNMT-1 [1] = assay: DNMT-1 mRNA expression by RT-PCR in MDA-MB-231 tumor cells; format: cell-based, human; conditions: 25 μM, 24 hours, compared to DMSO (FIG. 1B)
Description: FIGS. 1A-1E show DNA methyltransferase mRNA expression in vitro and in vivo. […] PyMT tumor cells were left untreated, were treated with DMSO, or were treated with AKB-6899 (10, 25, or 50 μM) for 24 hours. The cells were subjected to Trizol extraction to recover total RNA. cDNA was synthesized for RT-PCR of DNMT-1 and DNMT-3a mRNA expression. […] Human MDA-MB-231 tumor cells were left untreated, were treated with DMSO, or were treated with AKB-6899 (25 μM) for 24 hours. Total RNA was isolated for RT-PCR. FIG. 1C (DNMT-1), FIG. 1D (DNMT-3a), and FIG. 1E (DNMT-3b) compare the effect of AKB-6899 with the effect of 5-aza-2′deoxycytidine (5-AZA) as assessed by RT-PCR in human cervical tumors implanted in mice that were either untreated (UTX), treated with DMSO, treated with 5-AZA, or treated with AKB-6899 (17.5 mg/kg).
To determine whether the decrease in DNMT expression and the increase in DSP expression were relevant in human cancer, the level of desmoplakin expression in MDA-MB-231 human triple negative breast cancer cells was determined. […] (FIG. 3B).

desmoplakin mRNA = assay: Desmoplakin mRNA expression in cultured PyMT cells; format: cell-based, mouse
Description: FIGS. 3A-3E show the effect of AKB-6899 (25 μM) on methylation of the desmoplakin (DSP) gene promoter in PyMT breast cancer cells (3A), human MDA-MB-231 triple negative breast cancer cells (3B), human C8161.9 melanoma cells (3C), and human MCF-7 breast cancer cells (3D). In FIG. 3A, the DSP promoter was 100% unmethylated (AKB-6899) vs. 99.99% methylated (vehicle). In FIG. 3B, the DSP promoter was 99.62% unmethylated (AKB-6899) v. 99.89% (vehicle). In FIG. 3C, the DSP promoter was 99.90% unmethylated (AKB-6899) v. 42.04% (vehicle). In FIG. 3D, the DSP promoter was 92.48% unmethylated (AKB-6899) v. 98.48% (vehicle). In FIG. 3E, when compared to the vehicle (DMSO), treatment of PyMT cells with AKB-6899 increased DSP expression.
FIGS. 4A-4B show desmoplakin mRNA expression in vitro and in vivo.

DSP promoter = assay: Percent CpG methylation of DSP promoter in HeLa cells; format: cell-based, human; conditions: 5 or 25 μM, compared to DMSO and PBA (FIG. 6B)
Description: HeLa cervical cancer cells were left untreated, were treated with DMSO, were treated with 5-AZA, were treated with AKB-6899 (5 or 25 μM), or were treated with PBA (2 mM).

DNMT-3b [2] = assay: DNMT-3b transcription in H1703 lung cancer cells; format: cell-based, human; conditions: H1703 cells in vitro, dose-dependent (FIG. 10A)
From the text: (§1) In FIG. 10A, AKB-6899 inhibited DNMT-1, DNMT-3a, and DNMT-3b transcription in a dose-dependent manner in human squamous cell carcinoma lung cancer cells (H1703), in vitro. The DMSO-treated DNMT mRNAs are over 1.0, meaning the level of expression is higher than the housekeeping control gene, CAP1. In FIG. 10B, AKB-6899 inhibited DNMT-3a and DNMT-3b transcription in human adenocarcinoma lung cancer cells (A549). The DMSO-treated DNMT mRNAs are under 1.0, meaning the level of expression is lower than the housekeeping control gene, CAP1.

DNMT-3b [3] = assay: DNMT-3b transcription in A549 lung cancer cells; format: cell-based, human; conditions: A549 cells (FIG. 10B)
From the text: as §1

[4] = tested on: 23 different gene promoters; assay: Percent methylation of 23 gene promoters in H1703 squamous cell carcinoma; format: cell-based, human; conditions: H1703, 10 μM and 50 μM, compared to DMSO
Description: (§2) FIGS. 11A-11D show the percent methylation for 23 different gene promoters in two types of human lung cancer cells—FIGS. 11A and 11B are directed at H1703 squamous cell carcinoma and FIG. 11C and FIG. 11D are directed at A549 adenocarcinoma. DMSO was used as a vehicle and was used as a control. […] The Dec/PBA condition represents a combination of 5 μM Decitabine (5-aza-2′deoxycytidine (5-AZA), which is a demethylating agent) and 2 mM […] (PBA, HDAC inhibitor). In all promoters tested, and in both types of lung cancer, AKB-6899 demethylated the gene promoters such that the level of % DNA methylation following AKB-6899 treatment was below the level of % DNA methylation of the DMSO-treated control cells (DMSO).

[5] = tested on: 23 different gene promoters; assay: Percent methylation of 23 gene promoters in A549 adenocarcinoma; format: cell-based, human; conditions: A549, 10 μM and 50 μM, compared to DMSO
Description: as §2

BEAS-2B cells = assay: XTT cell survival assay, normal lung epithelial cells; format: cell-based; conditions: BEAS-2B normal lung epithelial cells, even at the highest dose (FIG. 13A)
From the text: FIGS. 13A-13B show XTT cell survival assays for normal lung epithelial cells (BEAS-2B) and lung cancer cells (H1703 squamous cell carcinoma and A549 adenocarcinoma) in response to increasing doses of AKB-6899.

DNMT-1 [6] = assay: DNMT-1 mRNA expression in lungs of normal mice after systemic administration; format: in vivo, mouse; conditions: i.p. 17.5 mg/kg three times per week for three weeks, vs DMSO
Description: (§3) FIGS. 14A-14C show the effects of systemic administration of AKB-6899. Mice were treated three times per week for three weeks with either i.p. AKB-6899 or i.p. DMSO. The lungs were removed and assayed to determine DNMT mRNA expression, percent CpG methylation, and fold change in mRNA. […] The data was standardized to 1.0 by the DMSO levels of the respective gene expression, (n=4 lungs per condition).

RASSF1 promoter = assay: CpG methylation of RASSF1 promoter in lungs of normal mice; format: in vivo, mouse; conditions: i.p., three weeks (FIG. 14B)
Description: as §3

[7] = tested on: MDA-MB-231 human breast cancer cells; assay: RNAseq of microRNAs and snoRNAs in MDA-MB-231 cancer cells; format: cell-based; conditions: MDA-MB-231 cells, compared to DMSO-treated cells
Description: The expression of various microRNAs and snoRNAs was evaluated following administration of AKB-6899 to MDA-MB-231 human breast cancer cells. In these cancer cells, AKB-6899 increased expression of several microRNAs, some of which target methylation regulators such as the DNMTs. AKB-6899 also regulated about 20 snoRNAs, some of which are known to guide methylation. Finally, the analysis identified over sixty (60) RNA transcripts in the AKB-6899 treated cancer cells, which transcriptions are yet to annotated. The AKB-6899 treated breast cancer cells were compared to DMSO-treated cancer cells.

In the case of O=C(O)CNC(=O)c1ncc(-c2cccc(F)c2)cc1O [AKB-6899, {[5-(3-Fluorophenyl)-3-hydroxypyridine-2-carbonyl]amino}acetic acid], the “DNMT-1 mRNA expression” value (DNMT-1 [1]) was “significantly decreased; also recorded: downregulated”, the DSP expression (desmoplakin mRNA; PyMT cells, compared to vehicle (DMSO) (FIG. 3E)) was “increased” and the “desmoplakin mRNA expression” value (desmoplakin mRNA; cultured PyMT cells, 10 μM, compared to DMSO (FIG. 4A)) was “significantly increases”. The “demethylation of DSP promoter (percent CpG methylation)” value (DSP promoter) was “increase in demethylation”, the DNMT-3b transcription (DNMT-3b [2]) was “inhibited” and the DNMT-3b transcription (DNMT-3b [3]) was “inhibited”. For the same compound, the “percent DNA methylation of 23 gene promoters” value [4] was “decreased the percent of DNA methylation in a dose response fashion”, the “percent DNA methylation of 23 gene promoters” value [5] was “decreased the percent of DNA methylation in a dose response fashion” and the cell survival (BEAS-2B cells) was “no significant decrease”. For the same compound, the “DNMT-1 expression in lungs” value (DNMT-1 [6]) was “inhibited”, the “methylation of RASSF1 promoter in lungs” value (RASSF1 promoter) was “demethylated” and the “expression of microRNAs” value [7] was “increased”.
